In PubChem BioAssay (NCI):
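Test compounds were applied to cells in 96-well plates for 48 hours at 5 doses. At the TGI there is no net growth.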

Columns and labels:
Assay in all cases: DTP human tumour cell line panel, 48 h
A498 renal = test system: A498 renal
A549 NSCLC = test system: A549 NSCLC
ACHN renal = test system: ACHN renal
BT-549 breast = test system: BT-549 breast
CCRF-CEM leukemia = test system: CCRF-CEM leukemia
COLO 205 colon = test system: COLO 205 colon
DU-145 prostate = test system: DU-145 prostate
EKVX NSCLC = test system: EKVX NSCLC
HCC-2998 colon = test system: HCC-2998 colon
HCT-15 colon = test system: HCT-15 colon
HL-60(TB) leukemia = test system: HL-60(TB) leukemia
HOP-62 NSCLC = test system: HOP-62 NSCLC
HS 578T breast = test system: HS 578T breast
HT29 colon = test system: HT29 colon
IGROV1 ovarian = test system: IGROV1 ovarian
K-562 leukemia = test system: K-562 leukemia
KM12 colon = test system: KM12 colon
LOX IMVI melanoma = test system: LOX IMVI melanoma
M14 melanoma = test system: M14 melanoma
MALME-3M melanoma = test system: MALME-3M melanoma
MCF7 breast = test system: MCF7 breast
MDA-MB-231 breast = test system: MDA-MB-231 breast
MDA-MB-435 = test system: MDA-MB-435
MDA-N = test system: MDA-N
MOLT-4 leukemia = test system: MOLT-4 leukemia
NCI-H226 lung = test system: NCI-H226 lung
NCI-H23 lung = test system: NCI-H23 lung
NCI-H460 lung = test system: NCI-H460 lung
NCI-H522 lung = test system: NCI-H522 lung
NCI/ADR-RES ovarian = test system: NCI/ADR-RES ovarian
OVCAR-3 ovarian = test system: OVCAR-3 ovarian
OVCAR-4 ovarian = test system: OVCAR-4 ovarian
OVCAR-5 ovarian = test system: OVCAR-5 ovarian
OVCAR-8 ovarian = test system: OVCAR-8 ovarian
PC-3 prostate = test system: PC-3 prostate
RPMI-8226 leukemia = test system: RPMI-8226 leukemia
RXF 393 renal = test system: RXF 393 renal
SF-268 CNS = test system: SF-268 CNS
SF-295 CNS = test system: SF-295 CNS
SK-MEL-2 melanoma = test system: SK-MEL-2 melanoma
SK-MEL-28 melanoma = test system: SK-MEL-28 melanoma
SK-MEL-5 melanoma = test system: SK-MEL-5 melanoma
SK-OV-3 ovarian = test system: SK-OV-3 ovarian
SN12C renal = test system: SN12C renal
SNB-19 CNS = test system: SNB-19 CNS
SNB-75 CNS = test system: SNB-75 CNS
SR leukemia = test system: SR leukemia
SW-620 colon = test system: SW-620 colon
T-47D breast = test system: T-47D breast
TK-10 renal = test system: TK-10 renal
U251 CNS = test system: U251 CNS
UACC-257 melanoma = test system: UACC-257 melanoma
UACC-62 melanoma = test system: UACC-62 melanoma
UO-31 renal = test system: UO-31 renal
786-0 renal = test system: 786-0 renal
CAKI-1 renal = test system: CAKI-1 renal
HCT-116 colon = test system: HCT-116 colon
HOP-92 NSCLC = test system: HOP-92 NSCLC
SF-539 CNS = test system: SF-539 CNS

Measured: TGI

COc1nc2ccc(CNc3ccc(C(=O)NC(CCC(=O)O)C(=O)O)cc3)cc2nc1OC (stereo unspecified)
not listed: 786-0 renal | CAKI-1 renal | HCT-116 colon | HOP-92 NSCLC | SF-539 CNS
> 100 µM: all other assays above

O=C(Nc1ccccc1)c1cc(S(=O)(=O)N2CCNC2=O)c(S)cc1Cl
not listed: MALME-3M melanoma | NCI-H226 lung
> 100 µM: all other assays above
